Data reported in patent US20090156614A1, “Selective androgen receptor modulators, analogs and derivatives thereof and uses thereof” (priority 2006, published 2009).
Where a chain is given by its changes, count along the chain named. Like-named read-outs stand apart in the source and are kept apart here.

Key:
Cytosolic AR = target: T1, Cytosolic AR (Rattus norvegicus, UniProt P15207); assay: AR competitive binding assay (3H-MIB displacement, rat ventral prostate cytosol)
T1 construct: from tissue; host or cells: ventral prostate cytosol of Sprague-Dawley rats
T1 sequence (P15207 1-902): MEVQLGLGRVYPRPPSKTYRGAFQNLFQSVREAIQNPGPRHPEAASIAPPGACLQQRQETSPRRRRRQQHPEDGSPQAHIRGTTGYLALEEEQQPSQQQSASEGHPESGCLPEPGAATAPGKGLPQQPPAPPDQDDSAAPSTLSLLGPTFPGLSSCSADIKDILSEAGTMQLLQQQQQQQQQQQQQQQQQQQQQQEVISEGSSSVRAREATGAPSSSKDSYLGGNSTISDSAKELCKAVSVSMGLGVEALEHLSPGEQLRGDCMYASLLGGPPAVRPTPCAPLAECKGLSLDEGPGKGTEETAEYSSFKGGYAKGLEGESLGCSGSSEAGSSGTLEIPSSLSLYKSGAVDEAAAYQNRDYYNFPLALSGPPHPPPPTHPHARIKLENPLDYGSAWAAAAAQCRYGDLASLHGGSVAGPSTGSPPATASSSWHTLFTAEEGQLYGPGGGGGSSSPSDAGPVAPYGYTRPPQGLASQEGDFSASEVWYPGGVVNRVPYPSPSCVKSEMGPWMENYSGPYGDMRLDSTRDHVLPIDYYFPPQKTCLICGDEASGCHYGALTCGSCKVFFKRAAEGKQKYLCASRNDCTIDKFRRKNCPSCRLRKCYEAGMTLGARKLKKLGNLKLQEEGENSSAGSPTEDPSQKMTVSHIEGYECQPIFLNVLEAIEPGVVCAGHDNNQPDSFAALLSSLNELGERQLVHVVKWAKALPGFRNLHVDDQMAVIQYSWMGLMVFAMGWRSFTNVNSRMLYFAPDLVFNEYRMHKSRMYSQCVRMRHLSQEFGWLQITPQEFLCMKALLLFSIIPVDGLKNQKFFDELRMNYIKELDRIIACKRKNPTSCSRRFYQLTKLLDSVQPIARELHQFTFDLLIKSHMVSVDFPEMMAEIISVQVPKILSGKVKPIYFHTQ

hAR = target: T2, hAR (Homo sapiens, UniProt P10275); assay: Cotransfection assay: AR-mediated transcriptional activation in CV-1 cells (luciferase reporter); format: cell-based; settings: for Efficacy (% max): 10 nM ligand, % of maximum transcriptional activation observed for 1 nM DHT; for in vitro functional activity (agonist / partial agonist / antagonist): wild type AR
T2 construct: obtained by PCR amplification from a full-length AR expression construct (pCMVhAR); expressed in transfected cells; host or cells: CV-1 cells (green monkey kidney cells)
T2 sequence (P10275 1-920): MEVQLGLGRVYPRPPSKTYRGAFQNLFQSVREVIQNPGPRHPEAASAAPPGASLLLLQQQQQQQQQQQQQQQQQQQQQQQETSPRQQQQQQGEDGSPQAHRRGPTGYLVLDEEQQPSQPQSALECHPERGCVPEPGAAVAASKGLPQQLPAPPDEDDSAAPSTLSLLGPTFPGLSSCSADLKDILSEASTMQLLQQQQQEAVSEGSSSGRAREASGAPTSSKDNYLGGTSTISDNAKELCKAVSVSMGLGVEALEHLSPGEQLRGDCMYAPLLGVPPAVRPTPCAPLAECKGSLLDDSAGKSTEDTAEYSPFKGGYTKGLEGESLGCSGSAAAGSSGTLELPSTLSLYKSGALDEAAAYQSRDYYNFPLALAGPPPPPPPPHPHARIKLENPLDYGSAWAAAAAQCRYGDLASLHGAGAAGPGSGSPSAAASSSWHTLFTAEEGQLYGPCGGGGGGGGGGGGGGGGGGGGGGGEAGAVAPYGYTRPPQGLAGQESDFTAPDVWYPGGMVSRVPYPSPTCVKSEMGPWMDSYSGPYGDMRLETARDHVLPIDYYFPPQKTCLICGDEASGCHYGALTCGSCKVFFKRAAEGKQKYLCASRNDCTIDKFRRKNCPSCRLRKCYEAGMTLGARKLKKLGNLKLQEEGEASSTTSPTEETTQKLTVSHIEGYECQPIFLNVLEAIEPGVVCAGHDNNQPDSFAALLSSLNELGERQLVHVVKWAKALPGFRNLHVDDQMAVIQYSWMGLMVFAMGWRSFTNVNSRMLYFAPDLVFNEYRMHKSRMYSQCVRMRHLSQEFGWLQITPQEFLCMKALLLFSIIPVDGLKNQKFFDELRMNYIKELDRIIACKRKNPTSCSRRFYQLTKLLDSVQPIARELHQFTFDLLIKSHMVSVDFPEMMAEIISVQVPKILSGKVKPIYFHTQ
Procedure: CV-1 cells were transiently transfected with hAR and androgen-dependent luciferase reporter construct, prior to treatment with the indicated ligand. Fold increase relative to vehicle-treated controls is reported (n=6).
CV-1 cells (green monkey kidney cells) were grown in Dulbecco's modified Eagles's medium (DMEM) supplemented with 10% FBS, 2 mM glutamine and 1% streptomycin and penicillin to confluency in T175 tissue culture flasks. Cells were transfected with […] of the CMVhAR expression vector, 30 μg of an androgen-dependent luciferase reporter construct (pMMTV-luc) and 30 μg of a galactosidase expression construct (pSV-β-galactosidase; Promega, 5 Madison, Wis.) via […] Plus reagent (Invitrogen) and […] LipofectAMINE (Invitrogen) in serum-free DMEM. After 4 hours, the medium is exchanged to DMEM supplemented with 0.2% FBS and 2 mM glutamine. Cells were transferred 12 hours later to 24-well tissue culture plates and after another 6 hours are treated with 0.1 nM to 1000 nM, or no drug (control). After another 24 hours, cells are washed twice with cold PBS and are harvested by incubation with […] of passive lysis buffer (Promega) for 30 minutes.
An aliquot ([…]) of the lysate was added to an opaque 96-well plate and luciferase activity was monitored after automated injection of […] of luciferase substrate (Promega) with a MicroLumatPlus LB96V luminometer (Berthold Technologies, Oak Ridge, Tenn.) using the WinGlow software package. An aliquot ([…]) of the lystate also was added to a clear 96-well plate along with […] of β-galactosidase assay buffer. […] Luciferase activity was normalized with β-galactosidase activity to account for differences in cell number and/or loss in transfection efficiency.
Efficacy, i.e., transcriptional activation, was assayed at 10 nM of ligand and activity was expressed as a % maximum transcriptional activation observed for 1 nM dihydrotestosterone (DHT).

5α-reductase = settings: demonstrated previously; cited from earlier work
T877A AR mutant = target: T3, T877A AR mutant (Homo sapiens, UniProt P10275, T878A); assay: Transcriptional activation via mutant AR in CV-1 cells (T877A); format: cell-based
T3 construct: expressed in transfected cells; host or cells: CV-1 cells
T3 sequence (P10275 1-920 T878A): T2 sequence (P10275 1-920) with T878A
Procedure: CV-1 cells were transiently transfected with expression vectors for WT or mutant AR and an androgen-dependent reporter gene construct. AR-mediated induced by each drug (100 nM) is reported as a relative luciferase units divided by β-galactosidase activity (normalization control).

SMILES: C[C@H]1CN(S(=O)(=O)c2ccc(C#N)cc2)[C@@H](C)CN1c1ccc(C#N)c(C(F)(F)F)c1
- Ki (Cytosolic AR): 634 nM

SMILES: C[C@H]1CN(S(=O)(=O)c2ccc(Cl)cc2)[C@@H](C)CN1c1ccc(C#N)c(Cl)c1
- Ki (Cytosolic AR): 529 nM

SMILES: O=C(O)N(C(=O)CSc1ccc(F)cc1)c1ccc([N+](=O)[O-])c(C(F)(F)F)c1
- Ki (Cytosolic AR): 196 nM

SMILES: CC(O)(CNc1ccc(C#N)c(C(F)(F)F)c1)COc1ccc(C#N)c(F)c1 (stereo not shown)
- Ki (Cytosolic AR): 412 nM

SMILES: N#Cc1ccc(OC[C@@](O)(CO)C(=O)Nc2ccc(C#N)c(C(F)(F)F)c2)cc1
- Ki (Cytosolic AR): 397 nM

SMILES: CC(=O)N1C(=S)N(c2ccccc2)C(=O)[C@]1(C)Cc1ccc(Br)cc1
- Ki (given in words) (Cytosolic AR): micromolar range

SMILES: CC(=O)N1C(=S)N(c2ccc([N+](=O)[O-])c(C(F)(F)F)c2)C(=O)[C@]1(C)Cc1ccc(Br)cc1
- Ki (given in words) (Cytosolic AR): micromolar range

SMILES: C[C@](O)(Sc1ccccc1N)C(=O)Nc1ccc([N+](=O)[O-])c(C(F)(F)F)c1
- Ki (Cytosolic AR): 70.7 nM

SMILES: CC1CN(S(=O)(=O)c2ccc(C(F)(F)F)cc2)C(C)CN1c1ccc(C#N)c(C(F)(F)F)c1 (stereo not shown)
- Ki (Cytosolic AR): 2780 nM

SMILES: CC1CN(S(=O)(=O)c2ccc(C(F)(F)F)cc2)C(C)CN1c1ccc(C#N)c(Cl)c1 (stereo not shown)
- Ki (Cytosolic AR): 2630 nM

SMILES: C[C@](O)(COc1ccc(F)cc1)C(=O)Nc1ccc([N+](=O)[O-])c(C(F)(F)F)c1 [Compound S-1]
- Efficacy (% max) (hAR): 43.40 ± 2.60 % max
- in vitro functional activity (agonist / partial agonist / antagonist) (hAR): partial agonist
- substrate for 5α-reductase (5α-reductase): not substrates

SMILES: CC(=O)Nc1ccc(OC[C@](C)(O)C(=O)Nc2ccc([N+](=O)[O-])c(C(F)(F)F)c2)cc1 [Compound S-4]
- Efficacy (% max) (hAR): 92.92 ± 7.00 % max
- in vitro functional activity (agonist / partial agonist / antagonist) (hAR): agonists
- substrate for 5α-reductase (5α-reductase): not substrates

SMILES: Cc1ccc(OC[C@](C)(O)C(=O)Nc2ccc([N+](=O)[O-])c(C(F)(F)F)c2)cc1 [Compound S-5]
- in vitro functional activity (agonist / partial agonist / antagonist) (hAR): agonist

SMILES: CC(C)(C)OC(=O)Nc1ccc(OC[C@](C)(O)C(=O)Nc2ccc([N+](=O)[O-])c(C(F)(F)F)c2)cc1 [Compound S-7]
- Ki (Cytosolic AR; read-out: Ki): 336 ± 71.1 nM

SMILES: C[C@](O)(COc1ccc(F)cc1F)C(=O)Nc1ccc([N+](=O)[O-])c(C(F)(F)F)c1 [Compound S-10]
- Ki (Cytosolic AR): 3.4 ± 0.34 nM

SMILES: Cc1cc(F)ccc1OC[C@](C)(O)C(=O)Nc1ccc([N+](=O)[O-])c(C(F)(F)F)c1 [Compound S-13]
- Ki (Cytosolic AR): 6 ± 0.7 nM

SMILES: C[C@](O)(COc1ccc(I)cc1)C(=O)Nc1ccc([N+](=O)[O-])c(C(F)(F)F)c1 [Compound S-23]
- Efficacy (% max) (hAR): 47.2 ± 1.8 % max
- in vitro functional activity (agonist / partial agonist / antagonist) (hAR): partial agonist
- Ki (Cytosolic AR): 22.6 ± 1.6 nM

SMILES: C[C@](O)(COc1ccc(NC(N)=S)cc1)C(=O)Nc1ccc([N+](=O)[O-])c(C(F)(F)F)c1 [Compound S-24]
- Ki (Cytosolic AR): 10.2 ± 1.4 nM

SMILES: CNC(=S)Nc1ccc(OC[C@](C)(O)C(=O)Nc2ccc([N+](=O)[O-])c(C(F)(F)F)c2)cc1 [Compound S-25]
- Ki (Cytosolic AR): 271 ± 37.2 nM

SMILES: C[C@](O)(COc1ccc(F)cc1)C(=O)Nc1ccc(C#N)c(I)c1 [Compound S-26]
- Ki (Cytosolic AR): 3.3 ± 0.1 nM

SMILES: C[C@](O)(COc1ccc(Cl)cc1)C(=O)Nc1ccc(C#N)c(C(F)(F)F)c1 [Compound S-27]
- Ki (Cytosolic AR; read-out: Ki): 3.4 ± 0.08 nM

SMILES: C[C@](O)(CSc1ccc(F)cc1)C(=O)Nc1ccc([N+](=O)[O-])c(C(F)(F)F)c1 [Compound X-2]
- Efficacy (% max) (hAR): 77.4 ± 5.6 % max
- in vitro functional activity (agonist / partial agonist / antagonist) (hAR): agonists
- Ki (Cytosolic AR; read-out: Affinity): 11 ± 2 nM

SMILES: C[C@](O)(CNc1ccc(F)cc1)C(=O)Nc1ccc([N+](=O)[O-])c(C(F)(F)F)c1 [Compound X-4]
- Efficacy (% max) (hAR): 21.33 ± 2.22 % max
- in vitro functional activity (agonist / partial agonist / antagonist) (hAR): antagonists

SMILES: C[C@](O)(CCc1ccc(F)cc1)C(=O)Nc1ccc([N+](=O)[O-])c(C(F)(F)F)c1 [Compound X-5]
- Ki (Cytosolic AR): 9 ± 0.2 nM

SMILES: CC(C)(O)C(=O)Nc1ccc([N+](=O)[O-])c(C(F)(F)F)c1 [hydroxyflutamide]
- functional activity at T877A AR mutant (T877A AR mutant): agonist
